Data on 19 compounds can be found in patent publication US7138411B2, “Substituted benzopyran derivatives for the treatment of inflammation” (G.D. Searle & Co., priority 1997, dated 2006).

Series [1] deals with T1, COX-2 (UniProt P35354).
T1 sequence (P35354 1-604): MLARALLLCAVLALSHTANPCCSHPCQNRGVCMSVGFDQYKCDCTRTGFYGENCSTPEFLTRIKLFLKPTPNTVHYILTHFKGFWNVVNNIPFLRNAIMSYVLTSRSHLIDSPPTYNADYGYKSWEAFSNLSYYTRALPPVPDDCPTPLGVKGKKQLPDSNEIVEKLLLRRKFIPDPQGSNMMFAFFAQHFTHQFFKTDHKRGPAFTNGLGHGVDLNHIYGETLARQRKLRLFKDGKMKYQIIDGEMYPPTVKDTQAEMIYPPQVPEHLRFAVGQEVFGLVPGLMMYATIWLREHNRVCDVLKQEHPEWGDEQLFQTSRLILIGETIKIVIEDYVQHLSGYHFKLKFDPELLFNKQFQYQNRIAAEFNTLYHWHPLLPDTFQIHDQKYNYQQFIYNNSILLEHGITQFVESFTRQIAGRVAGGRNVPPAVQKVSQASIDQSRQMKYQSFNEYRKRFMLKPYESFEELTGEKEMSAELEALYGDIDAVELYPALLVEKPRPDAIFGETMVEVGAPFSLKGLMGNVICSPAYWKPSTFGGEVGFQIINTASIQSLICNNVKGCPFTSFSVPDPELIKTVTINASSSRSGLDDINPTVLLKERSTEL
In words: Fast assay for COX-2 activity (PGE2 ELISA). The note with it: fast assay: 10 min pre-incubation at 25° C., reaction stopped after two minutes, pH 7.5. The series is classed as biochemical, human or murine.
Procedure: The homogenate was centrifuged at 10,000×G for 30 minutes, and the resultant supernatant was stored at −80° C. before being assayed for COX activity.
Fast Assay for COX-1 and COX-2 Activity
COX activity was assayed as PGE2 formed/μg protein/time using an ELISA to detect the prostaglandin released. CHAPS-solubilized insect cell membranes containing the appropriate COX enzyme were incubated in a potassium phosphate buffer (0.05 M Potassium phosphate, pH 7.5, 2 μM phenol,1 μM heme, 300 μM epinephrine) with the addition of 20 μl of 100 μM arachidonic acid (10 μM). […] The PGE2 formed was measured by standard ELISA technology (Cayman Chemical).

In series [2] the target is T1, COX-2. Description: Assay for COX-2 activity (PGE2 ELISA). The note with it: read-out: COX-2 IC50; 10–20 minutes pre-incubation, reaction stopped after ten minutes, pH 8.0. In general terms: In an ELISA, binding on a coated surface is turned into a signal by an enzyme label.
The target in another series is COX-1 (UniProt P23219). In words: Assay for COX-1 activity (PGE2 ELISA). Conditions: read-out: COX-1 IC50; 10–20 minutes pre-incubation, reaction stopped after ten minutes, pH 8.0.

The term IC50 denotes the concentration that gives 50% inhibition. Usually melting point stands for the temperature of the solid-liquid transition.

Procedure for COX-1: Recombinant baculoviruses were isolated by transfecting 4 μg of baculovirus transfer vector DNA into SF9 insect cells (2×10^8) along with 200 ng of linearized baculovirus plasmid DNA by the calcium phosphate method. […] Recombinant viruses were purified by three rounds of plaque purification and high titer (10^7–10^8 pfu/mL) stocks of virus were prepared. For large scale production, SF9 insect cells were infected in 10 liter fermentors (0.5×10^6/mL) with the recombinant baculovirus stock such that the multiplicity of infection was 0.1. […] The homogenate was centrifuged at 10,000×G for 30 minutes, and the resultant supernatant was stored at −80° C. before being assayed for COX activity.
Assay for COX-1 and COX-2 Activity
COX activity was assayed as PGE2 formed/μg protein/time using an ELISA to detect the prostaglandin released. CHAPS-solubilized insect cell membranes containing the appropriate COX enzyme were incubated in a potassium phosphate buffer (50 mM, pH 8.0) containing epinephrine, phenol, and heme with the addition of arachidonic acid (10 μM). […] The PGE2 formed was measured by standard ELISA technology (Cayman Chemical).

In turn, `CC(C)CNS(=O)(=O)c1ccc2c(c1)C=C(C(=O)O)C(C(F)(F)F)O2` (stereo not shown) [Example 55, 6-[(2-Methylpropyl)aminosulfonyl]-2-trifluoromethyl-2H-1-benzopyran-3-carboxylic acid] came in with a melting point of 190.6 to 192.4 °C. On COX-2 [1], this compound yielded an IC50 of 46 µM. In addition, on COX-2 [2], the IC50 amounted to 53 µM. Also, the IC50 on COX-1 is above 100 µM.
For `O=C(O)C1=Cc2cc(Cl)c(Cl)cc2SC1C(F)(F)F` (stereo not shown) [Example 154, 6,7-Dichloro-2-(trifluoromethyl)-2H-1-benzothiopyran-3-carboxylic acid], in that order: 262.5 to 263.5 °C, 0.5 µM, below 0.1 µM and 37 µM.
The matching figures for `O=C(O)C1=Cc2cc(Cl)c(Oc3ccc(Cl)cc3)cc2OC1C(F)(F)F` (stereo not shown) [Example 184, 6-Chloro-7-(4-chlorophenoxy)-2-(trifluoromethyl)-2H-1-benzopyran-3-carboxylic acid]: 205.4 to 206.5 °C, below 0.1 µM, below 0.1 µM and 1.3 µM.
Compound `O=C(O)C1=Cc2cc(Oc3ccc(C(F)(F)F)cc3)ccc2OC1C(F)(F)F` (stereo not shown) [Example 101, 2-(Trifluoromethyl)-6-[4-(trifluoromethyl)phenoxy)-2H-1-benzopyran-3-carboxylic acid] registered a melting point of 153.5 to 154.4 °C. Besides, the IC50 at COX-2 [1] was below 0.1 µM. Also, the IC50 on COX-2 [2] is below 0.1 µM. Also, on COX-1, the IC50 was determined as 16 µM.
As for `O=C(O)C1=Cc2cc(Br)cc(Br)c2OC1C(F)(F)F` (stereo not shown) [Example 33, 6,8-Dibromo-2-trifluoromethyl-2H-1-benzopyran-3-carboxylic acid], the melting point lay within 225 to 226 °C. The IC50 on COX-2 [1] was below 0.1 µM. In addition, on COX-2 [2], the IC50 turned out to be 8.2 µM. The 50% inhibitory concentration (IC50) at COX-1 was found to be 28 µM.
`O=C(O)C1=Cc2cc(Cl)c(Oc3cccnc3)cc2OC1C(F)(F)F` (stereo not shown) [Example 201, 6-Chloro-7-[3-pyridinyloxy]-2-(trifluoromethyl)-2H-1-benzopyran-3-carboxylic acid]: the melting point was 237.8 to 238.8 °C. The same compound displayed an IC50 at COX-2 [1] below 0.1 µM. In addition, the IC50 at COX-2 [2] amounted to 0.1 µM. Also, the IC50 on COX-1 worked out at 63.8 µM.
The matching figures for `COc1ccc(Sc2cc3c(cc2Cl)C=C(C(=O)O)C(C(F)(F)F)O3)cc1` (stereo not shown) [Example 191, 6-Chloro-7-[(4-methoxyphenyl)thio]-2-(trifluoromethyl)-2H-1-benzopyran-3-carboxylic acid]: 239.4 to 242.3 °C, below 0.1 µM, 42.2 µM and above 100 µM.
The matching figures for `O=C(O)C1=Cc2cc(Oc3ccc(Cl)cc3)ccc2OC1C(F)(F)F` (stereo not shown) [Example 104, 6-(4-Chlorophenoxy)-2-(trifluoromethyl)-2H-1-benzopyran-3-carboxylic acid]: 140.5 to 142.5 °C, below 0.1 µM, below 0.1 µM and 8.2 µM.
The matching figures for `O=C(O)C1=Cc2cc(SC(F)(F)F)ccc2SC1C(F)(F)F` (stereo not shown) [Example 155, 2-(Trifluoromethyl)-6-[(trifluoromethyl)thio]-2H-1-benzothiopyran-3-carboxylic acid]: 129.3 to 132.4 °C, below 0.1 µM, below 0.1 µM and below 0.1 µM.
In turn, `O=C(O)C1=Cc2cc(Cl)c(OCC(F)(F)F)cc2OC1C(F)(F)F` (stereo not shown) [Example 209] had a melting point of 174.4 to 176 °C. The IC50 on COX-2 [1] turned out to be 0.2 µM. For the same compound, on COX-2 [2], the IC50 was above 100 µM. The IC50 on COX-1 is above 100 µM.
`O=C(O)C1=Cc2cc(C(F)(F)C(F)(F)F)ccc2OC1C(F)(F)F` (stereo not shown) [Example 88, 6-(Pentafluoroethyl)-2-(trifluoromethyl)-2H-1-benzopyran-3-carboxylic acid]: the melting point lay within 162.3 to 164.7 °C. The compound also showed an IC50 at COX-2 [1] below 0.1 µM. Further, the IC50 at COX-2 [2] is below 0.1 µM. For the same compound, on COX-1, the IC50 turned out to be 6.4 µM.
The compound `O=C(O)C1=Cc2cc(Cl)cc(C#Cc3ccccc3)c2OC1C(F)(F)F` (stereo not shown) [Example 120, 6-Chloro-8-(phenylethynyl)-2-(trifluoromethyl)-2H-1-benzopyran-3-carboxylic acid] registered a melting point of 190.1 to 192.1 °C. In addition, the IC50 against COX-2 [1] is below 0.1 µM. Also, the IC50 at COX-2 [2] is below 0.1 µM. The IC50 on COX-1 is 33 µM.
`C=Cc1cc(Cl)cc2c1OC(C(F)(F)F)C(C(=O)O)=C2` (stereo not shown) [Example 114, 6-Chloro-8-ethenyl-2-(trifluoramethyl)-2H-1-benzopyran-3-carboxylic acid] came in with a melting point of 183.2 to 185.8 °C. Moreover, the IC50 at COX-2 [1] was below 0.1 µM. Besides, on COX-2 [2], the IC50 was below 0.1 µM. In addition, the IC50 on COX-1 was below 0.1 µM.
Consider `O=C(O)C1=Cc2cc(Cl)c(Oc3cccc(Cl)c3)cc2OC1C(F)(F)F` (stereo not shown) [Example 196, 6-Chloro-7-(3-chlorophenoxy)-2-(trifluoromethyl)-2H-1-benzopyran-3-carboxylic acid], for which the melting point was in the range of 174.1 to 176.1 °C. The compound also gave a 50% inhibitory concentration (IC50) on COX-2 [1] below 0.1 µM. On COX-2 [2], the IC50 came to 9.5 µM. Besides, the IC50 at COX-1 turned out to be 30.3 µM.
For `O=C(O)C1=Cc2cc(Cl)c(Oc3ccc(C(F)(F)F)cc3)cc2OC1C(F)(F)F` (stereo not shown) [Example 186, 6-Chloro-2-(trifluoromethyl)-7-[4-(trifluoromethyl)phenoxy]-2H-1-beazopyran-3-carboxylic acid], in that order: 230.9 to 232 °C, below 0.1 µM, 3.4 µM and 32.8 µM.
For `O=C(O)C1=Cc2cc(Cl)c(Oc3ccc(OC(F)(F)F)cc3)cc2OC1C(F)(F)F` (stereo not shown) [Example 187, 6-Chloro-2-(trifluoromethyl)-7-[4-(trifluoromethoxy)phenoxy]-2H-1-benzopyran-3-carboxlic acid], in that order: 198 to 199.2 °C, 2.9 µM, 33.7 µM and above 100 µM.
The matching figures for `C=Cc1cc2c(cc1Cl)C=C(C(=O)O)C(C(F)(F)F)O2` (stereo not shown) [Example 182, 6-Chloro-7-ethenyl-2-(trifluoromethyl)-2H-1-benzopyran-3-carboxylic acid]: > 200 °C (dec.), below 0.1 µM, above 100 µM and above 100 µM.
Compound `O=C(O)C1=Cc2ccc(Oc3ccccc3)cc2OC1C(F)(F)F` (stereo not shown) [Example 176, 7-Phenoxy-2-(trifluoromethyl)-2H-1-benzopyran-3-carboxylic acid] registered a melting point of 180 to 181 °C. The compound also gave an IC50 on COX-2 [1] below 0.1 µM. For the same compound, the IC50 on COX-2 [2] is 2 µM. Further, the IC50 on COX-1 was determined as 3.3 µM.
The matching figures for `O=C(O)C1=Cc2cc(Cl)c(Oc3ccc4cc(Br)ccc4c3)cc2OC1C(F)(F)F` (stereo not shown) [Example 189, 7-[(6-Bromo-2-naphthalenyl)oxy]-6-chloro-2-(trifluoromethyl)-2H-1-benzopyran-3-carboxylic acid]: 252.6 to 254.8 °C, below 0.1 µM, 1.2 µM and 44.8 µM.
